What was measured:
Ba/F3 EGFR L858R/T790M = assay: Ba/F3 cell viability, CellTiter-Glo; assay type: cell-based; settings: for cell viability: administered alone, FIGS. 1 to 4; for cell viability compared to EAI045: co-administered with Cetuximab, 30 nM or 100 nM, FIGS. 6 and 7
Protocol: In order to confirm that the compound represented by formula 1 according to the present invention acted as an allosteric inhibitor against EGFR wild-type and mutants, the inhibitory effect on EGFR wild-type and mutants in Ba/F3 cell lines was evaluated. In addition, in order to evaluate the cellular activity when the compound according to the present invention was co-administered with an existing drug, the cellular activity according to the combined administration was evaluated using Cetuximab used alone or in combination with chemotherapy in metastatic colorectal cancer and metastatic squamous head and neck cancer.
Particularly, the activity of the compound of the present invention against the wild-type and mutant Ba/F3 EGFR cell lines was measured as follows using the CellTiter-Glo system of Promega. CellTiter-Glo assay is a method to confirm the cell viability by measuring ATP present in cells in cell culture state. Ba/F3 EGFR wild-type and Ba/F3 EGFR L858R, Ba/F3 EGFR L858R/T790M and Ba/F3 L858R/T790M/C797S mutant cell lines were purchased from Crown Bioscience and used. Ba/F3 EGFR wild-type and Ba/F3 EGFR L858R, Ba/F3 EGFR L858R/T790M and Ba/F3 L858R/T790M/C797S mutant cell lines were cultured in RPMI containing 10% FBS, 1% penicillin-streptomycin and 1 ug/ml of puromycine in a 37° C., 5% CO2 incubator.
Analysis of the cell survival inhibitory effect of the compound according to each EGFR mutant was performed according to the following analytical reaction recipe.
BaF3 cells were aliquoted into 2500 cells/50 ul per well of a 96 well cell culture plate and cultured for 24 hours, to which 50 ul of the compound represented by formula 1 was treated at the concentrations of 0, 0.03, 0.1, 0.3, and 1 μM. The plate treated with the compound was reacted in a 37° C. incubator for 72 hours, and then left at room temperature for 30 minutes according to the CellTiter-Glo assay instruction to maintain the plate temperature at room temperature. Thereafter, 100 μl of CellTiter-Glo reagent was treated to each well of the plate, followed by shaking incubation at room temperature for 10 minutes. Finally, the […] was quantitatively measured using a luminometer, and the ability of the compound to inhibit cell viability was confirmed. The values measured at concentrations of the compound were analyzed using Prism program (version 5.01, Graphpad Software, Inc.), and the IC50 value, an index of the inhibitory ability of the compound, was calculated.

[1] = target: EGFR L858R/T790M/C797S mutant enzyme (Homo sapiens (Human), UniProt P00533, C797S/L858R/T790M); assay: EGFR mutant enzyme inhibition, HTRF system (Cisbio); assay type: biochemical; settings: ATP 1 mM, 37° C. for 2 hours
Protocol: In order to evaluate the inhibitory activity of the compound represented by formula 1 according to the present invention against EGFR mutation, the following experiment was performed.
The activity of the compound of the present invention against EGFR mutant enzyme was measured using the HTRF system of Cisbio Co. As an EGFR L858R/T790M/C797S mutant enzyme, a protein provided by SignalChem was purchased and used as an enzyme source.
The composition of the assay buffer used for the activity measurement was as follows: 50 mM Tris-HCl (pH 7.5), 100 mM NaCl, 7.5 mM MgCl2, 3 mM KCl, 0.01% Tween 20, 0.1% BSA, and 1 mM DTT. Herein, an enzyme reaction was performed using a peptide substrate labeled with ATP at the concentration of 1 mM and biotin at the concentration of 0.5 μM. The analysis of the EGFR activity inhibitory effect of the compound was performed according to the following analytical reaction recipe.
Component 1: 4 μl of EGFR mutant enzyme
Component 2: 2 μl of compound solution
Component 3: 4 μl of ATP and biotin-labeled peptide mixture
The enzyme reaction was initiated by mixing the component 1 and the component 2 first and then adding the component 3 thereto. After reacting the mixture at 37° C. for 2 hours, 10 μl of a measurement solution consisting of streptavidin-XL665 and europium-labeled anti-phosphotyrosine antibody provided by Cisbio was added to the enzyme reaction solution, followed by reaction at room temperature for 1 hour. Finally, the ratio of the fluorescence values at 615 nm and 665 nm was calculated using Envision equipment of Perkin-Elmer to quantitatively measure the enzyme activity and confirm the inhibitory ability of the compound. The values measured at 7 concentrations of the compound were analyzed using Prism program (version 5.01, Graphpad Software, Inc.), and the IC50 value, an index of the inhibitory ability of the compound, was calculated.

Sequence of EGFR L858R/T790M/C797S mutant enzyme (P00533 25-1210 T790M/C797S/L858R): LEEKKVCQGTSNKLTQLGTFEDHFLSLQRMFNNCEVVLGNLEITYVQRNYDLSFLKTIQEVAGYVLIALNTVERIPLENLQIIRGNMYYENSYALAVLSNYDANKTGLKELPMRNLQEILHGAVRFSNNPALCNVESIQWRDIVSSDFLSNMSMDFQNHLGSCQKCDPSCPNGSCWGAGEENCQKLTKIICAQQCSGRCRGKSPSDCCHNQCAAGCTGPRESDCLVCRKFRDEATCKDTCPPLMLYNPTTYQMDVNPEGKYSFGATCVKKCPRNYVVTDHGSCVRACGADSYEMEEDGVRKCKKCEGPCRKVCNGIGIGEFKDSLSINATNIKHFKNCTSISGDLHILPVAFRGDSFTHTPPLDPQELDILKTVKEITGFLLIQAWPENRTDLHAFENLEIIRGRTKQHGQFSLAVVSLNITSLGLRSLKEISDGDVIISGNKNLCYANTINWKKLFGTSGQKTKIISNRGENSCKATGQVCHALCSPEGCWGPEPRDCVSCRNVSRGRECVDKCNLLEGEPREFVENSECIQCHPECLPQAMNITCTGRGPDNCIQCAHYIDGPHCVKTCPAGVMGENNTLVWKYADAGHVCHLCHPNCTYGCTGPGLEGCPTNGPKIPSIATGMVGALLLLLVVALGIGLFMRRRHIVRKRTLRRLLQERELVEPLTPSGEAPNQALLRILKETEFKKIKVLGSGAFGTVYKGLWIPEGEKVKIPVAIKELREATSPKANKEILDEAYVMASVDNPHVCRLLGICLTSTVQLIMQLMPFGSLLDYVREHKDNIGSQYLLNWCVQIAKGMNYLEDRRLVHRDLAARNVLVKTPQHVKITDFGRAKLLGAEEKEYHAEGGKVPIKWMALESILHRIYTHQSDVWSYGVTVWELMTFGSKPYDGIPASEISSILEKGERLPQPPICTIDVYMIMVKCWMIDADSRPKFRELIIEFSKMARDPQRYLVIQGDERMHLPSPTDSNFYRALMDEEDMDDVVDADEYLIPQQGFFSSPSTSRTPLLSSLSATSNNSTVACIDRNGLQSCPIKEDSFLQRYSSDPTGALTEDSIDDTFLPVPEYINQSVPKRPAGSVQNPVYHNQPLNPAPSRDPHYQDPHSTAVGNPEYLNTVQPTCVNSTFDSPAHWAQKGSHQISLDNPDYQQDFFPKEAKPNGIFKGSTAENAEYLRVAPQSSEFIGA

For `O=C1c2cc(-c3ccc(N4CCNCC4)cc3)ccc2CN1C(c1nc2ccccc2[nH]1)c1ccccc1O` (stereo not drawn) [Example 9, 2-((1H-benzo[d]imidazole-2-yl)(2-hydroxyphenyl)methyl)-6-(4-(piperazine-1-yl)phenyl)isoindolin-1-one], the cell viability (Ba/F3 EGFR L858R/T790M) was “increased cell viability”, the “cell viability compared to EAI045” value (Ba/F3 EGFR L858R/T790M) was “significantly reduced the cell viability” and the IC50 [1] was 91 nM.
In the case of `Nc1ccc(-c2ccc3c(c2)C(=O)N(C(c2nc4ccccc4[nH]2)c2cc(F)ccc2O)C3)cc1` (stereo not drawn) [Example 13, 2-((1H-benzo[d]imidazole-2-yl)(5-fluoro-2-hydroxyphenyl)methyl)-6-(4-aminophenyl)isoindolin-1-one], the cell viability (Ba/F3 EGFR L858R/T790M) is reported as “increased cell viability” and the IC50 [1] is reported as 98 nM.
In the case of `O=C1c2cc(-c3ccc(N4CCNCC4)cc3)ccc2CN1[C@@H](c1cc2ccccc2[nH]1)c1cc(F)ccc1O` [Example 32, (R)-2-((5-fluoro-2-hydroxyphenyl)(1H-indole-2-yl)methyl)-6-(4-(piperazine-1-yl)phenyl)isoindolin-1-one], the cell viability (Ba/F3 EGFR L858R/T790M) is reported as “increased cell viability”, the “cell viability compared to EAI045” value (Ba/F3 EGFR L858R/T790M) is reported as “significantly reduced the cell viability” and the IC50 [1] is reported as 8 nM.
In the case of `O=C1c2cc(-c3ccc(N4CCNCC4)cc3)ccc2CN1[C@@H](c1cc2ccccc2[nH]1)c1cc(Cl)ccc1O` [Example 33, (R)-2-((5-chloro-2-hydroxyphenyl)(1H-indole-2-yl)methyl)-6-(4-(piperazine-1-yl)phenyl)isoindolin-1-one], the cell viability (Ba/F3 EGFR L858R/T790M) is reported as “increased cell viability”, the “cell viability compared to EAI045” value (Ba/F3 EGFR L858R/T790M) is reported as “significantly reduced the cell viability” and the IC50 [1] is reported as 12 nM.
For `O=C1c2cc(-c3ccc(N4CCOCC4)cc3)ccc2CN1C(c1nc2ccccc2[nH]1)c1cc(Cl)ccc1O` (stereo not drawn) [Example 40, 2-((1H-benzo[d]imidazole-2-yl)(5-chloro-2-hydroxyphenyl)methyl)-6-(4-morpholinophenyl)isoindolin-1-one], the IC50 [1] was 370 nM.
With `O=C1c2cc(C3=CCNCC3)ccc2CN1[C@@H](c1cc2ccccc2[nH]1)c1cc(F)ccc1O` [Example 35, (R)-2-((5-fluoro-2-hydroxyphenyl)(1H-indole-2-yl)methyl)-6-(1,2,3,6-tetrahydropyridine-4-yl)isoindolin-1-one] the IC50 [1] was 730 nM.
In the case of `O=C1c2cc(-c3ccc(N4CCOCC4)cc3)ccc2CN1C(c1nc2ccccc2[nH]1)c1cc(F)ccc1O` (stereo not drawn) [Example 39, 2-((1H-benzo[d]imidazole-2-yl)(5-fluoro-2-hydroxyphenyl)methyl)-6-(4-morpholinophenyl)isoindolin-1-one], the IC50 [1] is reported as 960 nM.
`O=C1c2ccccc2CN1[C@H](c1cc2cccnc2[nH]1)c1cc(F)ccc1O` [Example 27, (S)-2-((5-fluoro-2-hydroxyphenyl)(1H-pyrrolo[2,3-b]pyridine-2-yl)methyl)isoindolin-1-one] was tested, and the IC50 [1] was 280 nM.

From patent US11976059B2 (KOREA RESEARCH INSTITUTE OF CHEMICAL TECHNOLOGY, priority 2018, dated 2024)
